# Assay results reported in patent US20190185479A1, “BICYCLIC NITROGENATED HETEROCYCLIC COMPOUND” (MITSUBISHI TANABE PHARMA CORPORATION, priority 2016, published 2019).
# pIC50: −log10 of the molar value.
# Experiments:
# Assay type in all cases: biochemical
# Human PDE7B (hPDE7B) = target: T1, Human PDE7B (hPDE7B) (Homo sapiens, UniProt Q9NP56); assay: Measurement of PDE7 inhibitory activity (Experimental Example 1; residual cAMP, LANCE Ultra cAMP TR-FRET); conditions: cAMP 3 nmol/L, room temperature 60 minutes
# T1 construct: made in house; host or cells: COS-7 cells
# T1 sequence (Q9NP56 whole entry): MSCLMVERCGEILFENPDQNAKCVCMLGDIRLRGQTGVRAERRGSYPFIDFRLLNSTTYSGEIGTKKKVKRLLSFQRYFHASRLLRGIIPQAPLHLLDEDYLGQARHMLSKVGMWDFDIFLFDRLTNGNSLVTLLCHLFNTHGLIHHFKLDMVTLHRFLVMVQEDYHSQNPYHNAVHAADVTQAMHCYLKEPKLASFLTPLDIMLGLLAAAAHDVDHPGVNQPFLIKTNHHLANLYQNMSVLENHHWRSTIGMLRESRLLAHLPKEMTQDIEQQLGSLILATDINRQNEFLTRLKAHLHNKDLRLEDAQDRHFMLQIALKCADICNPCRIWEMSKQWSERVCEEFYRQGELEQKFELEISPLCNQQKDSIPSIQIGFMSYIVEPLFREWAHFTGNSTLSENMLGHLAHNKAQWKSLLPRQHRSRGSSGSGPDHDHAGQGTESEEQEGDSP
# Outline: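 hPDE7B from transfected COS-7 cells reacted with 3 nmol/L cAMP (final) and compound (2% DMSO) in 50 mmol/L Tris-HCl pH 7.5, 1 mmol/L MgCl2, 0.1% BSA, 0.5 mmol/L DTT, 60 min at room temperature. Reaction stopped with IBMX; residual cAMP measured by TR-FRET. Inhibition scaled between no-compound and no-enzyme controls.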
# hPDE4D = target: T2, hPDE4D (Homo sapiens, UniProt Q08499); assay: PDE4 inhibition assay (IC50), Experimental Example 3; conditions: for pIC50: hPDE4D, read-out: PDE inhibition assay IC50, PDE4; for inhibition at 10 µM: at 10 μmol/L
# T2 construct: purchased SB Drug Discovery
# T2 sequence (Q08499 whole entry): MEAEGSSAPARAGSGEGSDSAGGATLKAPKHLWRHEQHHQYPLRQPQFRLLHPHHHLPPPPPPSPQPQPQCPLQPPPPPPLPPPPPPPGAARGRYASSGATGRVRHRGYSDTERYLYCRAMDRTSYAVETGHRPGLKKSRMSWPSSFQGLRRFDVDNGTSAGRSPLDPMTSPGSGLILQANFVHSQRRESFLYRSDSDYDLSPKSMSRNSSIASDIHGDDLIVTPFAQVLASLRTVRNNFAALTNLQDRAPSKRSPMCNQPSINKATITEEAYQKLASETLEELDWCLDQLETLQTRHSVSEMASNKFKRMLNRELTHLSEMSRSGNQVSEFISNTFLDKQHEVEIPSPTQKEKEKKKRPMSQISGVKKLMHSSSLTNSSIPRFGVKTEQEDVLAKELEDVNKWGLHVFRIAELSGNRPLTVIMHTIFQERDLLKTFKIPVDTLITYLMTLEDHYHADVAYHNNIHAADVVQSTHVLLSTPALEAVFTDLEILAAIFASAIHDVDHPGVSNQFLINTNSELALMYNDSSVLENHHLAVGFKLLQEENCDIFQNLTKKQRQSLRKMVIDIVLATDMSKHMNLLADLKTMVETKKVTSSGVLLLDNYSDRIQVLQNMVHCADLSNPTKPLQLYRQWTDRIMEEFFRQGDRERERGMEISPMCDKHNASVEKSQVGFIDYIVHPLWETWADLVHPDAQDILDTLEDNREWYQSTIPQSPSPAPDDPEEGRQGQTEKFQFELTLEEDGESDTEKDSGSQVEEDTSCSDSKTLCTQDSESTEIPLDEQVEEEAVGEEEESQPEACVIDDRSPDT
# Method: (§1) PDE7 inhibitory assay was carried out by reacting the mixture of a compound, hPDE7B, and cAMP, and measuring the residual cAMP by a detection method using LANCE (registered trademark) Ultra cAMP Detection Kit (ParkinElmer). The compound was dissolved in DMSO, and diluted so that the concentration would become 50 times of the final concentration. The hPDE7B and cAMP were diluted with an assay buffer (50 mmol/L Tris-HCl, 1 mmol/L MgCl2, 0.1% BSA, 0.5 mmol/L DTT, pH7.5) so that the hPDE7B would have an appropriate enzyme activity and the concentration of cAMP would become 6 nmol/L. To a 96 well plate were added the compound (2 μL) (DMSO final concentration: 2%), hPDE7B (48 μL), and cAMP (50 μL) (concentration at the reaction: 3 nmol/L), and the resulting mixture was reacted at room temperature for 60 minutes. The reaction solution (20 μL) was subjected to a TR-FRET method according to the protocol specified by the kit to measure the concentration of the residual cAMP. In the assay, to a tracer solution specified by the kit was added 0.5 mmol/L of 3-isobutyl-1-methylxanthine (IBMX, nonselective PDE inhibitor) in order to stop the PDE enzyme reaction after the completion of reaction until the measurement.
# (§2) The prediction of PDE7 selectivity was evaluated by comparing each IC50 value of a compound against PDE4, 8, and 10 with the IC50 value of said compound against PDE7B.
# (§3) hPDE4D, hPDE8B, and hPDE10A were prepared by the same method as [Method for preparing samples 2].
# (§4) PDE4, 8, and 10 inhibitory assays were carried out by the same method as [Assay procedure 1].
# (§5) The reaction without a compound wad defined as “0% inhibition”, the reaction without each PDE was defined as “100% inhibition”, and the calculation of IC50 value was carried out by the same method as <Method for data calculation 1>.
# hPDE8B = target: T3, hPDE8B (Homo sapiens, UniProt O95263); assay: PDE8 inhibition assay (IC50), Experimental Example 3; conditions: for pIC50: hPDE8B, read-out: PDE inhibition assay IC50, PDE8
# T3 construct: purchased SB Drug Discovery
# T3 sequence (O95263 whole entry): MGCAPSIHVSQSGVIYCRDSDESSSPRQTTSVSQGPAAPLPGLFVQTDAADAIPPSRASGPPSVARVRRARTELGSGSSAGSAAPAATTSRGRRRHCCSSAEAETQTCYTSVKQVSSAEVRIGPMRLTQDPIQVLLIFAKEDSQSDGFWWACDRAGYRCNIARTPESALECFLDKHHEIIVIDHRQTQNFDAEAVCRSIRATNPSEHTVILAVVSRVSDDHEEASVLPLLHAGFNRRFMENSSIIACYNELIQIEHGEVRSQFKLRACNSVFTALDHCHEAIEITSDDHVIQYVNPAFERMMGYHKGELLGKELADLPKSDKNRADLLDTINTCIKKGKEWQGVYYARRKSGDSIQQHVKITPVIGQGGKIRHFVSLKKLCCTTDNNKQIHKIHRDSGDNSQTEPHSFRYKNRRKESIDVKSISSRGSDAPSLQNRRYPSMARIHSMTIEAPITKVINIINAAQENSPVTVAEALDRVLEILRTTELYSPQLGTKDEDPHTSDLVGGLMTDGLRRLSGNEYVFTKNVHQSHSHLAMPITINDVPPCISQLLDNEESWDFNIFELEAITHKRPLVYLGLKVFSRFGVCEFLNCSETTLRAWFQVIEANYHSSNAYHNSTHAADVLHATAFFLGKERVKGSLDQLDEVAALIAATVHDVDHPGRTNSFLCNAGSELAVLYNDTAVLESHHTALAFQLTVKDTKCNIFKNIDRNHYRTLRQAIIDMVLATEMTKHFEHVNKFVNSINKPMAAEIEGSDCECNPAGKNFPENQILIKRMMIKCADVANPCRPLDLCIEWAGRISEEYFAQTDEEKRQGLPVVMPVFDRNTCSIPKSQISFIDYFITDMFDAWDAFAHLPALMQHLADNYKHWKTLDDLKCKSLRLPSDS
# Method: as §1, §2, §3, §4, §5
# hPDE10A = hPDE10A (Homo sapiens, UniProt Q9Y233); assay: PDE10 inhibition assay (IC50), Experimental Example 3; conditions: for pIC50: hPDE10A, read-out: PDE inhibition assay IC50, PDE10
# Sequence of hPDE10A (Q9Y233 290-1055 limits assumed): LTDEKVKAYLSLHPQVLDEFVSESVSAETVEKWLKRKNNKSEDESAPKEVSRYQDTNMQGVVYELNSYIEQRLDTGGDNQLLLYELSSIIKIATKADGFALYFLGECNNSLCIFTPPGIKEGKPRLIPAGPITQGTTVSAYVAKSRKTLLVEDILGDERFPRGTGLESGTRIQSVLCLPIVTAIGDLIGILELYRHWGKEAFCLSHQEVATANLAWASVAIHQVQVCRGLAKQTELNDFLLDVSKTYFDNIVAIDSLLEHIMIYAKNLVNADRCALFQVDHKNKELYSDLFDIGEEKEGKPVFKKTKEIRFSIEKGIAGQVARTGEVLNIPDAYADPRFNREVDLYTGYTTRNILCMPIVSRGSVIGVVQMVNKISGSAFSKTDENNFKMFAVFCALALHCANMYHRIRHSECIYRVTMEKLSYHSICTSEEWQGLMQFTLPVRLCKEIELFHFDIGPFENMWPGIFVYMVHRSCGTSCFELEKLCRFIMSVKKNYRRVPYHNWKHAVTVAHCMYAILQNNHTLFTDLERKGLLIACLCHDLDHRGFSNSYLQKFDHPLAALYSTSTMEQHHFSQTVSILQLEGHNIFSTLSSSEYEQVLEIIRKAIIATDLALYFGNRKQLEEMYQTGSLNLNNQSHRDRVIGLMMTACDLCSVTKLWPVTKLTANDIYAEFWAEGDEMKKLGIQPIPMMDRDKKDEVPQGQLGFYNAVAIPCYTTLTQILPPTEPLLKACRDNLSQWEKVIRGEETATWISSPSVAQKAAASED
# Method: as §1, §2, §3, §4, §5
# [1] = at 10 μmol/L, read-out: inhibition rate (%) at prescribed concentration, PDE10
# [2] = read-out: inhibition rate (%) at prescribed concentration, PDE4
# [3] = at 1 μmol/L, read-out: inhibition rate (%) at prescribed concentration, PDE8
pIC50 (Human PDE7B (hPDE7B)),pIC50 (hPDE4D),pIC50 (hPDE8B),pIC50 (hPDE10A),Compound,other results
7.40,5.66,5.78,–,"C[C@H]1CC[C@H](c2nnc3c(N)nccn32)CC1 [Example 149, 3-(trans-4-methylcyclohexyl) [1,2,4]triazolo[4,3-a]pyrazin-8-amine]",inhibition at 10 µM (hPDE10A; [1]): 46%
7.70,5.34,5.88,–,"CC1(C)CCCC(n2nnc3c(N)ncnc32)C1 (racemic) [Example 128, 3-(3,3-dimethylcyclohexyl)-3H-[1,2,3]triazolo[4,5-d]pyrimidin-7-amine]",inhibition at 10 µM (hPDE10A; [1]): 43%
7.40,5.10,5.47,–,"CC1CC(C)CN(c2nnc3c(N)ncc(C#N)n23)C1 (racemic) [Example 54, 8-amino-3-(3,5-dimethylpiperidin-1-yl) [1,2,4]triazolo[4,3-a]pyrazine-5-carbonitrile]","inhibition at 100 µM (hPDE10A; at 100 μmol/L, read-out: inhibition rate (%) at prescribed concentration, PDE10): 30%"
7.60,–,–,5.74,"CC1CCCCC1c1nnc2c(N)ncnn12 (single isomer, unassigned) [Example 70, 3-(cis-2-methylcyclohexyl) [1,2,4]triazolo[3,4-f][1,2,4]triazin-8-amine]","inhibition rate (%) at prescribed concentration, PDE4 (hPDE4D; at 1 μmol/L): 67% at 1; inhibition rate (%) at prescribed concentration, PDE8 (hPDE8B; at 1 μmol/L): 64% at 1"
7.52,5.42,5.16,–,"CC1CCCC(n2nnc3c(N)ncnc32)C1 (single isomer, unassigned) [Example 199, 3-(trans-3-methylcyclohexyl)-3H-[1,2,3]triazolo[4,5-d]pyrimidin-7-amine]","inhibition rate (%) at prescribed concentration, PDE10 (hPDE10A; at 10 μmol/L): 29% at 10"
7.05,5.37,5.43,4.55,CC1CCN(c2nnc3c(N)nccn23)CC1 [Example 28],–
> 8.00,5.52,5.77,5.28,"CCc1cnc(N)c2nnc(N3CCCC(C)(C)C3)n12 [Example 42, 3-(3,3-dimethylpiperidin-1-yl)-5-ethyl[1,2,4]triazolo[4,3-a]pyrazin-8-amine]",–
9.15,–,5.79,5.21,"CC1(C)CCCN(c2nnc3c(N)ncc(C#N)n23)C1 [Example 2, 8-amino-3-(3,3-dimethylpiperidin-1-yl) [1,2,4]triazolo[4,3-a]pyrazine-5-carbonitrile]","inhibition at 1 µM (hPDE4D; at 1 μmol/L, read-out: inhibition rate (%) at prescribed concentration, PDE4): 61%"
7.05,–,5.76,4.68,Nc1nccn2c(C3CCCOC3)nnc12 (stereo not shown) [Example 169],inhibition at 10 µM (hPDE4D; [2]): 33%
> 8.00,4.92,–,4.91,"Nc1ncnc2c1nnn2C1CCCCC1(F)F (single isomer, unassigned) [Example 115, 3-(2,2-difluorocyclohexyl)-3H-[1,2,3]triazolo[4,5-d]pyrimidin-7-amine]",inhibition at 1 µM (hPDE8B; [3]): 52%
7.10,5.49,4.98,5.19,"CCC1CCCCN1c1nnc2c(N)nccn12 (single isomer, unassigned) [Example 222, 3-(2-ethylpiperidin-1-yl) [1,2,4]triazolo[4,3-a]pyrazin-8-amine]",–
7.52,6.72,–,5.56,"CSc1nc(N)c2nnn(C3CCCCC3)c2n1 [Example 5, 3-cyclohexyl-5-(methylsulfanyl)-3H-[1,2,3]triazolo[4,5-d]pyrimidin-7-amine]",–
7.10,4.24,5.11,4.46,Nc1nccn2c(N3CCCC(C(F)(F)F)C3)nnc12 (stereo not shown) [Example 46],–
7.52,6.27,6.00,4.78,"Nc1ncnc2c1nnn2C1CCCC(C(F)F)C1 (single isomer, unassigned) [Example 200]",–
> 8.00,4.99,5.47,5.07,"Nc1nccn2c(C3CCCC4(CC4)C3)nnc12 (single isomer, unassigned) [Example 208, 3-(spiro[2,5]oct-5-yl) [1,2,4]triazolo[4,3-a]pyrazin-8-amine]",–
6.92,5.43,–,4.72,Nc1ncnc2c1nnn2[C@@H]1CCCOC1 [Example 90],inhibition at 1 µM (hPDE8B; [3]): 59%

pIC50 (Human PDE7B (hPDE7B)),pIC50 (hPDE4D),pIC50 (hPDE8B),pIC50 (hPDE10A),Compound,other results
7.22,5.32,5.45,4.98,Nc1nccn2c(C3CCc4[nH]ncc4C3)nnc12 (stereo not shown) [Example 159],–
7.15,5.20,5.80,4.89,CC1CCCN(c2nnc3c(N)nccn23)C1 (stereo not shown) [Example 24],–
7.10,5.11,5.26,4.62,Nc1nccn2c(N3CCCC4(CC4)C3)nnc12 [Example 44],–
7.52,5.46,6.23,–,"Nc1ncnc2c1nnn2C1CCCCCC1 [Example 110, 3-cycloheptyl-3H-[1,2,3]triazolo[4,5-d]pyrimidin-7-amine]",inhibition at 10 µM (hPDE10A; [1]): 33%
7.70,6.19,–,5.23,"CC1(C)CCC(n2nnc3c(N)ncnc32)CC1 [Example 101, 3-(4,4-dimethylcyclohexyl)-3H-[1,2,3]triazolo[4,5-d]pyrimidin-7-amine]","inhibition at 0.1 µM (hPDE8B; at 0.1 μmol/L, read-out: inhibition rate (%) at prescribed concentration, PDE8): 69%"
6.47,–,–,–,Nc1ncnc2c1cnn2C1CCCCC1 [Example 181],"inhibition at 10 µM (hPDE4D; [2]): 21%; inhibition at 10 µM (hPDE8B; at 10 μmol/L, read-out: inhibition rate (%) at prescribed concentration, PDE8): 24%; inhibition at 10 µM (hPDE10A; [1]): 49%"
6.80,–,5.07,–,Nc1ncnc2c1nnn2[C@H]1CCCC(F)(F)C1 [Example 89],inhibition at 10 µM (hPDE10A; [1]): 17%
7.10,5.33,5.40,4.75,"Nc1nccn2c([C@H]3[C@@H]4CCC[C@@H]43)nnc12 [Example 179, 3-[(1R,5S,6r)-bicyclo[3.1.0]hex-6-yl][1,2,4]triazolo[4,3-a]pyrazin-8-amine]",–
7.40,4.80,5.22,4.81,"Nc1nccn2c([C@H]3CCCC(F)(F)C3)nnc12 [Example 212, 3-[(1S)-3,3-difluorocyclohexyl][1,2,4]triazolo[4,3-a]pyrazin-8-amine]",–
7.30,4.51,4.78,4.42,"CC1CC(c2nnc3c(N)nccn23)CC(F)(F)C1 (single isomer, unassigned) [Example 216, 3-(trans-3,3-difluoro-5-methylcyclohexyl[1,2,4]triazolo[4,3-a]pyrazin-8-amine]",–
6.25,5.74,–,6.44,Nc1ncnc2c1c(C(F)(F)F)nn2C1CCCCC1 [Example 185],–
7.40,5.37,4.67,5.15,"CC1CCN(c2nnc3c(N)nccn23)C(C)C1 (racemic) [Example 62, 3-(2,4-dimethylpiperidin-1-yl) [1,2,4]triazolo[4,3-a]pyrazin-8-amine]",–
> 8.00,6.19,–,5.53,"COc1nc(N)c2nnn(C3CCCCC3)c2n1 [Example 92, 3-cyclohexyl-5-methoxy-3H-[1,2,3]triazolo[4,5-d]pyrimidin-7-amine]",–
6.39,5.47,–,6.33,Nc1ncnc2c1ncn2C1CCCCC1 [Example 182],–
6.24,–,–,5.57,"Cn1nc(C2CCCCC2)c2ncnc(N)c21 [Example 187, 3-cyclohexyl-1-methyl-1H-pyrazolo[4,3-d]pyrimidin-7-amine]",inhibition at 10 µM (hPDE4D; [2]): 38%
8.52,5.64,5.36,–,"CC1CCC(F)(F)CC1c1nnc2c(N)ncnn12 (single isomer, unassigned) [Example 246, 3-(cis-5,5-difluoro-2-methylcyclohexyl) [1,2,4]triazolo[3,4-f][1,2,4]triazin-8-amine]",–
